The source of these data is patent US7122519B2, “Didemnin analogs and fragments and methods of making and using them” (priority 2000, dated 2006).

For orientation: LC50 means the concentration that kills 50% of the test population.

In one data set the test system is protein biosynthesis. The data set can be described thus: inhibition of protein biosynthesis. To be noted: concentration of compound; read-out: Protein Synthesis (inhibition of protein biosynthesis). The class given is biochemical. The source says: (§1) Initial results are shown in Table 2 for inhibition of protein biosynthesis (column 1), cytotoxicity (column 2), and anti-tumor activity (column 3) of tamandarin A, as compared to the related anti-tumor compound didemnin B. The results in Table 2 are given in units of concentration of the selected compound.

Another data set deals with tumor. The data set can be described thus: anti-tumor activity (Assay Mean). The class given is cell-based.
Excerpt: as §1

Data set [1] relates to NCI-60 60 tumor cell line panel. Briefly: cytotoxicity, NCI-60 tumor cell line panel mean. The class given is cell-based. On the procedure:
as §1
As used herein, “GI50” refers to the dose of a compound which is capable of producing 50% inhibition of cell growth. GI50 is assessed by comparing growth of cells to which a compound has been administered with growth of the same cells to which the compound has not been administered.
As used herein, “LC50” refers to the dose of a compound which is capable of producing 50% lethality in cells. LC50 is assessed by comparing death of cells in a population of cells to which a compound has been administered with the death of cells in a population of the same cells to which the compound has not been administered.
“NCI-60” refers to a 60 tumor cell line panel which from the National Cancer Institute (NCI, Frederick, MD). “NCI-60 Mean” is the average GI50 or LC50 for the panel treated with the selected compound.

The next data set has as its system pancreatic carcinoma. Particulars: cited from earlier work.

Regarding `CC[C@H](C)[C@H]1NC(=O)[C@@H](NC(=O)[C@@H](CC(C)C)N(C)C(=O)[C@@H]2CCCN2C(=O)C(C)O)[C@@H](C)OC(=O)[C@H](Cc2ccc(OC)cc2)N(C)C(=O)[C@@H]2CCCN2C(=O)[C@H](CC(C)C)NC(=O)[C@@H](C)C(=O)[C@H](C(C)C)OC(=O)C[C@@H]1O` (stereo partly shown) [Didemnin B, reference compound], the IC50 with protein biosynthesis came out at 4 µM. The “Anti-tumor activity (Assay Mean)” value with tumor stood at 1.58 nM.
Turning to tamandarin A, the IC50 with protein biosynthesis is 1.3 µM. Moreover, the “cytotoxicity compared with didemnin B” value in data set [1] (in vitro, assays of Table 2) is recorded as “significantly less cytotoxic”. Moreover, in data set [1] (mean over 60 tumor cell line panel, 50% lethality in cells), the LC50 was determined as 4.8 µM. Also, the “Anti-tumor activity (Assay Mean)” value with tumor came out at 1.31 nM. Moreover, the “in vitro activity against pancreatic carcinoma compared with didemnin B” value in the data set with pancreatic carcinoma is recorded as “greater in vitro activity”.
